Results from US4104285A, “Taurine and glycine derivatives” (Hoffmann-La Roche Inc., priority 1977, dated 1978).

Columns and labels:
[1] = target: T1, rat pancreatic lipase (Rattus norvegicus, UniProt P27657); experiment: inhibition of rat pancreatic lipase activity in vitro; type: biochemical; conditions: [14C]-triolein emulsion, pH 8.6, 20 min. at 37° C
T1 sequence (P27657 17-465): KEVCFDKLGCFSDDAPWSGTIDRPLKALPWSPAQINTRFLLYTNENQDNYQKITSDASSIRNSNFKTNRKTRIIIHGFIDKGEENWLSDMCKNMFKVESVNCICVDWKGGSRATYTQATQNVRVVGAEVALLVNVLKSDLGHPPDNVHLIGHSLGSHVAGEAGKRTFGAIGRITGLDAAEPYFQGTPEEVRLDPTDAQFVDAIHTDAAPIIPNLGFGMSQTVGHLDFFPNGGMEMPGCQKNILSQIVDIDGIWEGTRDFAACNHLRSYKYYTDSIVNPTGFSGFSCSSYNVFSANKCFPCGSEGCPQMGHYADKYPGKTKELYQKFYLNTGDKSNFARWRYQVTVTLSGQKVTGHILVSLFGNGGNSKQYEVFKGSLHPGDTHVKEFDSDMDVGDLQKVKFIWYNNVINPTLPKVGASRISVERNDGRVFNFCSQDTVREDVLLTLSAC
Method: Dietary long-chain triglycerides must be hydrolyzed by pancreatic lipase in the duodenum before absorption can occur. […] The capacity of compounds of formula I-C to inhibit rat pancreatic lipase in vitro was investigated by testing the following compounds: The ability of compounds to inhibit rat pancreatic lipase is determined by analyzing the nmoles of free fatty acid [oleic acid] released from [^14 C]-triolein. Compounds of A and B are added to an emulsion consisting of: 200,000 dmp ^14 C-triolein, 7.5 mg triolein, 0.75 mg sodium taurocholate, 15 mg bovine serum albumin and 0.9 ml 0.2 M tris-HCl - 0.15 M NaCl, pH 8.6, per assay. Water and/or pancreatic lipase is added to make an assay volume of 1.0 ml. The emulsion is incubated for 20 min. at 37° C in a shaking water bath. The reaction is stopped by the addition of isopropanol; H2 SO4 (40:1). The lipids are extracted twice with 3 ml volumes of hexane. The liberated fatty acids are extracted with 2 ml of 0.1 N aqueous KOH in 50% methanol. A 1 ml aliquot of the KOH layer is placed in a scintillation vial with 10 ml of 2,5-bis-2-(5-tertiary butyl benzoxazolyl)thiophene. The radioactivity is determined in a scintillation counter. Data are expressed a nmoles free fatty acid [oleic acid] related.

[2] = test system: bile flow; experiment: stimulation of bile flow in rats, duodenal infusion; type: in vivo, female albino rats; conditions: 100 mg by duodenal infusion in 4ml emulsion, compared to rats which received only the emulsion
Method: The compounds of formula I-A are active in stimulation of bile flow which results in the dissolution of gall stones. This can be seen from the fact that when 100 mg of N-(3α,12α-dihydroxy-5β-24-norcholanoyl)-taurine was administered by duodenal infusion to female albino rats in a 4ml emulsion of sodium taurocholate in […], the flow of bile was increased 15% during the first 8 hours and 30% during the period of 9 to 15 hours after administration compared to the flow in rats which received only the emulsion without the taurine compound. […] This enabled the production of lymph at a constant rate, the infusion of a bile salt and the simultaneous collection of bile.

[3] = test system: cholesterol level in the lymph; experiment: cholesterol level in thoracic duct lymph of rats after oral administration with 4-14C-cholesterol emulsion; type: in vivo, female albino rats (Charles River); conditions: 100mg orally, compared to control (Na-TC)
Method: The lowering of the cholesterol levels in mammals by the administration of the compound of formula I-B can be seen from the fact that when 100mg of N-(3α,12α-dihydroxyetiocholanoyl)glycine was administered orally to female albino rats, the cholesterol level in the lymph was decreased after administration by 86% over the first 8 hours and 94% over the next 9 to 24 hr. period after administration as compared to the control. In this procedure, female albino rats (Charles River), weighing 300 ± 10 g were kept on a Purina chow diet ad libitum until the time of operation. […] This preparation enabled the production of lymph at a constant rate, the infusion of a bile salt, and the simultaneous collection of bile. All animals received, after operation, a continuous duodenal infusion of sodium taurocholate (Na-TC) in 0.85% NaCl. One day after operation, the rats were given, by stomach intubation, an emulsion containing about 4% triolein, 20 μ C of 4-^14 C-cholesterol (Specific Activity 61.7 mC/mM, 159 μ C/mg), 2 mg of cholesterol, in addition to protein, carbohydrate, and saline. Both the Na-TC and the cholesterol carrier employed gave a single spot on either thin layer or glass fiber paper chromatograph so no further purification was attempted. […] An aliquot of the lipid extract was placed on a small piece of glass fiber paper and counted. […]

[4] = test system: triglyceride absorption; experiment: effect on triglyceride absorption in vivo, rise in plasma triglycerides after oral load of corn oil; design: species or system rats
Method: The ability of compound I to inhibit the absorption of dietary triglyceride in rats is determined by analyzing the rise in serum triglycerides after an oral load of corn oil. […] In this procedure blood samples (0.4 ml) were collected from the rat tail 0, 2, 4, 6, 8 and 24 hours after compound administration. Each rat is its own control. Plasma samples were analyzed for triglyceride content by the procedure set forth in Kessler and Lederer, Tehnicon Symposium 1965 Automation in Analytical Chemistry Ed L. Skeggs, published Mediad Inc. New York (1966) pp 341. The data in Table I is expressed as mg% change in plasma triglyceride levels compared to zero time control values at each time interval. This change in plasma triglycerides was determined by calculating the difference between the triglyceride level at each time point compared to zero time contol level.

Compound | Ki [1] [mM] | increase in flow of bile ([2]; during the first 8 hours after administration) [%] | increase in flow of bile ([2]; period of 9 to 15 hours after administration) [%] | decrease of cholesterol level in the lymph (4-14C-cholesterol, % decrease over the control) ([3]; first 8 hours after administration) [%] | decrease of cholesterol level in the lymph (4-14C-cholesterol, % decrease over the control) ([3]; next 9 to 24 hr. period after administration) [%] | ability to inhibit absorption of triglyceride ([4]; 1.1 m moles/kg orally 15 minutes before oral corn oil, 24 hour fasted rats) | Change in Plasma Triglyceride Levels, 4 hr ([4]; 1.1 m moles/kg orally 15 minutes before oral corn oil, 24 hour fasted rats, 4 hr vs zero time, Control 98 ± 31) [mg %] | Change in Plasma Triglyceride Levels, 6 hr ([4]; 1.1 m moles/kg orally 15 minutes before oral corn oil, 24 hour fasted rats, 6 hr vs zero time, Control 161 ± 28) [mg %] | Change in Plasma Triglyceride Levels, 8 hr ([4]; 1.1 m moles/kg orally 15 minutes before oral corn oil, 24 hour fasted rats, 8 hr vs zero time, Control 391 ± 58) [mg %] | Change in Plasma Triglyceride Levels, 24 hr ([4]; 1.1 m moles/kg orally 15 minutes before oral corn oil, 24 hour fasted rats, 24 hr vs zero time, Control 130 ± 36) [mg %] | Change in Plasma Triglyceride Levels, 2 hr ([4]; po) [mg %]
C[C@H](CC(=O)NCCS(=O)(=O)O)[C@H]1CC[C@H]2[C@@H]3CC[C@@H]4C[C@H](O)CC[C@]4(C)[C@H]3C[C@H](O)[C@]12C [Compound A, N-(3α,12α-dihydroxy-5β-24-norcholanoyl)-taurine] | 7 | 15 | 30 |  |  |  |  |  |  |  | 
C[C@]12CC[C@@H](O)C[C@H]1CC[C@@H]1[C@@H]2C[C@H](O)[C@]2(C)[C@@H](C(=O)NCC(=O)O)CC[C@@H]12 [N-(3α,12α-dihydroxyetiocholanoyl)glycine] |  |  |  | 86 | 94 | inhibit absorption of triglyceride | 107 ± 17 | 130 ± 17 | 167 ± 22 | 46 ± 5 | 29 ± 3
C[C@H](CC(=O)NCC(=O)O)[C@H]1CC[C@H]2[C@@H]3CC[C@@H]4C[C@H](O)CC[C@]4(C)[C@H]3C[C@H](O)[C@]12C [Compound B, N-(3α,12α-dihydroxy-5β-24-norcholanoyl)glycine] | 8 |  |  |  |  |  |  |  |  |  | 
